{"source": "paper PMC10367051", "about": "“Comprehensive Mechanistic View of the Hydrolysis of Oxadiazole-Based Inhibitors by Histone Deacetylase 6 (HDAC6)” (ACS Chemical Biology, 2023)", "assay_type_in_all_cases": "biochemical", "key": {"[1]": {"biological_target": "T1, HDAC6 (Homo sapiens, UniProt Q9UBN7)", "T1 construct": "TwinStrep-FLAG-HALO (N, cleaved yes); made in house; host or cells: HEK293/T17", "T1 sequence (Q9UBN7 1-1215)": "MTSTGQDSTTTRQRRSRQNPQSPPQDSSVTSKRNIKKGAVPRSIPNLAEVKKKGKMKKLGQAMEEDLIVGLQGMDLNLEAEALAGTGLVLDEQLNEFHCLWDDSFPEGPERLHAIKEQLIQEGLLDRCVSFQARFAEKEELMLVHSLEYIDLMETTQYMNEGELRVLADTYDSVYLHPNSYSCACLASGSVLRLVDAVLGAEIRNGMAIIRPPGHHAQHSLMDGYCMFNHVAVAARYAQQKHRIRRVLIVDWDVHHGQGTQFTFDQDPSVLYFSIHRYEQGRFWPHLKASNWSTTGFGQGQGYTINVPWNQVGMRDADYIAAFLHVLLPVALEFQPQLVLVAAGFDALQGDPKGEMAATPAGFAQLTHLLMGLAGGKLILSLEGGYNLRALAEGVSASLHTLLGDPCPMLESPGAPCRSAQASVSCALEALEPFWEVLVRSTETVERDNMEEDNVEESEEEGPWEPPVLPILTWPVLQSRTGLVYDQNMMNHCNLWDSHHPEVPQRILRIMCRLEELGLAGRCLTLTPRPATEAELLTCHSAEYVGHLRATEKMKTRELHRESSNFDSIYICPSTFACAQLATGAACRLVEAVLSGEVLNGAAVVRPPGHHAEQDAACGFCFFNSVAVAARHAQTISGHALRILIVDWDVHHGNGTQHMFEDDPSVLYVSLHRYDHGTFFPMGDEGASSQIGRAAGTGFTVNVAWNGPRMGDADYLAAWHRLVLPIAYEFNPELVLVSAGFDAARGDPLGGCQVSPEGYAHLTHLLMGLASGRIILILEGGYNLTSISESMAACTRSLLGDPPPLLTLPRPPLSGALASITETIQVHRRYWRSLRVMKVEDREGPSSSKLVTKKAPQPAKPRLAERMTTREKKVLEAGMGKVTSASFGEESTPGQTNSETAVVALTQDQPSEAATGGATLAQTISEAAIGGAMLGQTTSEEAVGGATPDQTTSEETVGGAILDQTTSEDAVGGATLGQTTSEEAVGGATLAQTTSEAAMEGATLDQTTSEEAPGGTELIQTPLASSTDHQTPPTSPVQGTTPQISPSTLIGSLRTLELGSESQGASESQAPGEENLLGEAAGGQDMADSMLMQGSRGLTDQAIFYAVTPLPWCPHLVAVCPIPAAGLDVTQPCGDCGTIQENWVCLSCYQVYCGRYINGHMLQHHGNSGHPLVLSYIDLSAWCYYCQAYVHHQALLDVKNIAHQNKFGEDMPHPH", "assay": "Fluorometric HDAC inhibition assay, HDAC6", "conditions": "for IC50: purified human protein, Ac-Gly-Ala-[Lys-Ac]-AMC substrate 10 μM, 15 min preincubation; for fold more potent compared to the hydrazide product 4: HDAC6 potency ratio", "method": "(§1) Large-scale expression of recombinant human HDACs was carried out as described previously.[32],[37] Briefly, HEK293/T17 cells were transiently transfected with expression pMM222 plasmids comprising N-terminally tagged (TwinStrep-FLAG-HALO tag; Figure S1) HDAC genes using linear poly(ethyleneimine) (PEI, Polysciences Inc.). Cells were harvested three days post-transfection, and cell pellets were resuspended in the lysis buffer (100 mM Tris-HCl, 10 mM NaCl, 5 mM KCl, 2 mM MgCl2, and 10% glycerol at pH 8.0). Cells were disrupted by sonication, cell lysates were cleared by centrifugation, and soluble fusion proteins were first purified by Streptactin affinity chromatography (IBA). For all HDACs but HDACs 1, 10, and 11, the N-terminal tag was cleaved off overnight by the addition of TEV protease (10:1 HDAC/TEV ratio). Size-exclusion chromatography on a Superose 6 column (GE Healthcare Bio-Sciences; running buffer 30 mM HEPES, 140 mM NaCl, 10 mM KCl, 3% glycerol, and 0.25 mM TCEP) was used as the final purification step for all HDAC constructs.\n(§2) Optimized fluorometric assays were used to determine inhibition constants of studied compounds against individual HDAC isoforms as described previously.[32] Briefly, reactions were performed in the activity buffer comprising 50 mM HEPES, 140 mM NaCl, and 10 mM KCl at pH 7.4 supplemented with 1 mg mL^–1 bovine serum albumin (BSA), 1 mM tris(2-carboxyethyl)phosphine (TCEP), 10 μM substrates, and optimized concentrations of HDACs. The Ac-Gly-Ala-[Lys-Ac]-7-amino-methylcoumarylamide (AMC) substrate was used to profile HDACs 1, 2, 3, and 6; Boc-[Lys-TFA]-7-amino-methylcoumarylamide was used for HDACs 4, 5, 7, 8, and 9 (both substrates: Bachem); fluorescein-labeled N8-acetylspermidine was used for HDAC10;[32] and an internally quenched TNFα-derived peptide derivative was used for HDAC11.[39] Deacetylation reactions were monitored either by high-performance liquid chromatography (HPLC) (HDAC10) or by quantification of released AMC (λex/λem = 365/440 nm) using a CLARIOstar plate reader (BMG Labtech GmbH)."}, "[2]": {"biological_target": "T2, HDAC11 (Homo sapiens, UniProt Q96DB2)", "T2 construct": "made in house; host or cells: HEK293/T17", "T2 sequence (Q96DB2 1-347)": "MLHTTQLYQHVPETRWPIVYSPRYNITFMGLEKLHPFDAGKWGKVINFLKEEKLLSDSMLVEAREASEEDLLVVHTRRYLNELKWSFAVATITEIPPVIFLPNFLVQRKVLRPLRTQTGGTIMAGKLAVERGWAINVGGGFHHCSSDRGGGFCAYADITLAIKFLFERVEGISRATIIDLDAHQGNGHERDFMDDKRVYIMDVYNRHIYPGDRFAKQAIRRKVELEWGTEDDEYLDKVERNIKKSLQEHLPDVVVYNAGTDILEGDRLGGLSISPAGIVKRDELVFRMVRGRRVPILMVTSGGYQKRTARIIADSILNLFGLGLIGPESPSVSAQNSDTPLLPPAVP", "assay": "HDAC11 inhibition assay (internally quenched peptide)", "conditions": "purified human protein; internally quenched TNFα-derived peptide substrate; 15 min preincubation", "method": "as §1, §2"}, "[3]": {"biological_target": "T3, HDAC9 (Homo sapiens, UniProt Q9UKV0)", "T3 construct": "TwinStrep-FLAG-HALO (N, cleaved yes); made in house; host or cells: HEK293/T17", "T3 sequence (Q9UKV0 whole entry)": "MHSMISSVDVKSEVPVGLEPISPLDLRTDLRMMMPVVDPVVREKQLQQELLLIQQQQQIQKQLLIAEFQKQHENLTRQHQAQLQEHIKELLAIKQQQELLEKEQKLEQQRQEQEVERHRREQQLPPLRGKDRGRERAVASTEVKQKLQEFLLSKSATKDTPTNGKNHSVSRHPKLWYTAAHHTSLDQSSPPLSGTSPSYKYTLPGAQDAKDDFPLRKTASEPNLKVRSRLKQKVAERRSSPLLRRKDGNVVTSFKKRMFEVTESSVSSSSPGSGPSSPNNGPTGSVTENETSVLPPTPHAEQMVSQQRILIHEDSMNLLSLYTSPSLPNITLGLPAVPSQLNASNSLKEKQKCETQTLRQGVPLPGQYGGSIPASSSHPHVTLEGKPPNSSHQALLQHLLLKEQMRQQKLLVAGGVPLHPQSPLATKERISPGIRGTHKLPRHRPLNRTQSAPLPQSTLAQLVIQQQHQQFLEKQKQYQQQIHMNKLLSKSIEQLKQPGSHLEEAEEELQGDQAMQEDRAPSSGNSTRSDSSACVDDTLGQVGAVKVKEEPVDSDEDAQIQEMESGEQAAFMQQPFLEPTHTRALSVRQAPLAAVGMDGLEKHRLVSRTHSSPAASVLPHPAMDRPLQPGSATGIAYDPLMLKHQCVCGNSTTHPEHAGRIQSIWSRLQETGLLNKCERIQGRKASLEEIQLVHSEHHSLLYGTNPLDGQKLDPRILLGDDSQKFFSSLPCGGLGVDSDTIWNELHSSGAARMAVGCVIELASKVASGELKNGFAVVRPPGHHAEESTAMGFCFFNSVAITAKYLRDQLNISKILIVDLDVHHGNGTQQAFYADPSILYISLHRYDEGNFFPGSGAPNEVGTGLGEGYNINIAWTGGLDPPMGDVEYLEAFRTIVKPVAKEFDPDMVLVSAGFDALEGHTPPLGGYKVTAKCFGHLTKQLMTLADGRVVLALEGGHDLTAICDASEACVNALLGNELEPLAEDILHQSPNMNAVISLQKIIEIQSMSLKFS", "assay": "Fluorometric HDAC inhibition assay, HDAC9", "conditions": "purified human protein; Boc-[Lys-TFA]-AMC substrate 10 μM; 15 min preincubation", "method": "as §1, §2"}}, "data": [{"smiles": "CS(=O)(=O)N(Cc1ccc(C(=O)NN)cn1)c1cccc(Cl)c1", "note": "[compound 4]", "values": [{"measurement": "IC50", "setting": "[1]", "result": "2.16 ± 0.392", "unit": "µM"}, {"measurement": "IC50", "setting": "[2]", "result": "> 20", "unit": "µM"}, {"measurement": "IC50", "setting": "[3]", "result": "> 20", "unit": "µM"}]}, {"smiles": "CS(=O)(=O)N(Cc1ccc(C(=O)NNC(=O)C(F)(F)F)cn1)c1cccc(Cl)c1", "note": "[compound 5]", "values": [{"measurement": "IC50", "setting": "[1]", "result": 10.8, "unit": "µM"}]}, {"smiles": "CS(=O)(=O)N(Cc1ccc(-c2nnc(C(F)F)o2)cn1)c1cccc(Cl)c1", "note": "[compound 8]", "values": [{"measurement": "fold more potent compared to the hydrazide product 4", "setting": "[1]", "result": "approximately 1000 fold"}, {"measurement": "IC50", "setting": "[2]", "result": "> 20", "unit": "µM"}, {"measurement": "IC50", "setting": "[3]", "result": "> 20", "unit": "µM"}]}, {"smiles": "CS(=O)(=O)N(Cc1ccc(-c2nnc(C(F)(F)F)o2)cn1)c1cccc(Cl)c1", "note": "[compound 7]", "values": [{"measurement": "fold more potent compared to the hydrazide product 4", "setting": "[1]", "result": "~150", "unit": "fold"}, {"measurement": "IC50", "setting": "[1]", "result": "0.0146 ± 0.008", "unit": "µM"}, {"measurement": "IC50", "setting": "[2]", "result": "> 20", "unit": "µM"}, {"measurement": "IC50", "setting": "[3]", "result": "> 20", "unit": "µM"}]}, {"smiles": "CS(=O)(=O)N(Cc1ccc(C(=O)NNC(=O)C(F)F)cn1)c1cccc(Cl)c1", "note": "[compound 6]", "values": [{"measurement": "IC50", "setting": "[1]", "result": 14.5, "unit": "µM"}]}]}
